Measured values published in patent US5330989A, “Heterocycles substituted with biphenyl-3-cyclobutene-1,2-dione derivatives” (American Home Products Corporation, priority 1992, dated 1994).

Tested on: A II-infused rat
Assay: A II-infused rat model, antihypertensive activity (arterial pressure)
Type: in vivo
Conditions: 3 mg/kg id (duodenal cannula); four hours post-administration; mecamylamine ganglion blockade; A II infusion […]
Description: In accordance with their ability to antagonize angiotensin II, the compounds of this invention show antihypertensive activity in the following A II-infused rat model. Rats are anesthetized with Dial-Urethane(0.60 mL/kg, ip) and the trachea cannulated with PE 240. Either one femoral artery and both femoral veins or the carotid artery and the corresponding jugular vein are cannulated with PE 50. If the jugular vein is cannulated, two cannulas are placed in the one vein. The initial portion of the duodenum (just distal to the stomach) is cannulated with PE 50 via a small midline incision. Arterial pressure and heart rate are measured from the arterial cannula. Ten to 15 min are allowed following surgery for stabilization of arterial pressure. Ganglion blockage is then produced by intravenous administration of mecamylamine at 3 mg/kg (1 mL/kg of a 3 mg/mL solution). Ganglion blockade causes a fall in arterial pressure of about 50 mmHg. Mecamylamine is given every 90 min throughout the remainder of the experiment. An A II infusion is then begun into the other venous cannula at 0.25 μg/kg/min (at 9.6 μL/min). The A II infusion returns arterial pressure to or slightly above the control level. Once arterial pressure has stabilized with the A II infusion, baseline values for mean arterial pressure (MAP) and heart rate are taken. […]

With O=c1c(O)c(-c2ccccc2-c2ccc(CNc3nc(C(F)(F)F)nc4c3CCCC4)cc2)c1=O [Example 1, 3-hydroxy-4-[4'-[[[5,6,7,8-tetrahydro-2-(trifluoromethyl)-4-quinazolinyl]amino]methyl][1,1'-biphenyl]-2-yl]-3-cyclobutene-1,2-dione] the “average lowering of the A II dependent blood pressure” value was 52%.
